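Following 48 hours of exposure in 96-well plates, responses at five concentrations were used to interpolate endpoints linearly. The concentration for 50% growth inhibition is given as GI50. TGI is the concentration that stops growth completely.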
What was measured:
Experiment in all cases: inhibition of tumour cell growth, NCI panel, 48 h
786-0 renal = test system: 786-0 renal
A498 renal = test system: A498 renal
A549 NSCLC = test system: A549 NSCLC
ACHN renal = test system: ACHN renal
CAKI-1 renal = test system: CAKI-1 renal
CCRF-CEM leukemia = test system: CCRF-CEM leukemia
COLO 205 colon = test system: COLO 205 colon
DMS 114 small cell lung = test system: DMS 114 small cell lung
DMS 273 small cell lung = test system: DMS 273 small cell lung
EKVX NSCLC = test system: EKVX NSCLC
HCC-2998 colon = test system: HCC-2998 colon
HCT-116 colon = test system: HCT-116 colon
HCT-15 colon = test system: HCT-15 colon
HL-60(TB) leukemia = test system: HL-60(TB) leukemia
HOP-62 NSCLC = test system: HOP-62 NSCLC
HOP-92 NSCLC = test system: HOP-92 NSCLC
HT29 colon = test system: HT29 colon
IGROV1 ovarian = test system: IGROV1 ovarian
K-562 leukemia = test system: K-562 leukemia
KM20L2 colon = test system: KM20L2 colon
LOX IMVI melanoma = test system: LOX IMVI melanoma
LXFL 529 NSCLC = test system: LXFL 529 NSCLC
M14 melanoma = test system: M14 melanoma
M19-MEL melanoma = test system: M19-MEL melanoma
MALME-3M melanoma = test system: MALME-3M melanoma
MOLT-4 leukemia = test system: MOLT-4 leukemia
NCI-H226 lung = test system: NCI-H226 lung
NCI-H23 lung = test system: NCI-H23 lung
NCI-H522 lung = test system: NCI-H522 lung
OVCAR-3 ovarian = test system: OVCAR-3 ovarian
OVCAR-4 ovarian = test system: OVCAR-4 ovarian
OVCAR-5 ovarian = test system: OVCAR-5 ovarian
OVCAR-8 ovarian = test system: OVCAR-8 ovarian
RPMI-8226 leukemia = test system: RPMI-8226 leukemia
RXF 393 renal = test system: RXF 393 renal
SF-268 CNS = test system: SF-268 CNS
SF-295 CNS = test system: SF-295 CNS
SF-539 CNS = test system: SF-539 CNS
SK-MEL-2 melanoma = test system: SK-MEL-2 melanoma
SK-MEL-28 melanoma = test system: SK-MEL-28 melanoma
SK-MEL-5 melanoma = test system: SK-MEL-5 melanoma
SN12C renal = test system: SN12C renal
SNB-19 CNS = test system: SNB-19 CNS
SNB-75 CNS = test system: SNB-75 CNS
SNB-78 CNS = test system: SNB-78 CNS
SW-620 colon = test system: SW-620 colon
TK-10 renal = test system: TK-10 renal
U251 CNS = test system: U251 CNS
UACC-257 melanoma = test system: UACC-257 melanoma
UACC-62 melanoma = test system: UACC-62 melanoma
UO-31 renal = test system: UO-31 renal
XF 498 CNS = test system: XF 498 CNS
DLD-1 colon = test system: DLD-1 colon
HOP-18 NSCLC = test system: HOP-18 NSCLC
KM12 colon = test system: KM12 colon
NCI-H460 lung = test system: NCI-H460 lung
SK-OV-3 ovarian = test system: SK-OV-3 ovarian

Compound: CC1(C)C(c2ccccc2)C12CCC1(C2=O)C(c2ccccc2)C1(C)C (centres undefined)
- TGI (786-0 renal): 66.2 µM
- TGI (A498 renal): 90.7 µM
- TGI (A549 NSCLC): 75.7 µM
- TGI (ACHN renal): 39 µM
- TGI (CAKI-1 renal): 60.3 µM
- TGI (CCRF-CEM leukemia): 36.5 µM
- TGI (COLO 205 colon): 33.6 µM
- TGI (DMS 114 small cell lung): 34.9 µM
- TGI (DMS 273 small cell lung): 45.3 µM
- TGI (EKVX NSCLC): 69.3 µM
- TGI (HCC-2998 colon): 34.4 µM
- TGI (HCT-116 colon): 33.6 µM
- TGI (HCT-15 colon): 51.8 µM
- TGI (HL-60(TB) leukemia): 37.4 µM
- TGI (HOP-62 NSCLC): 60.5 µM
- TGI (HOP-92 NSCLC): 31.6 µM
- TGI (HT29 colon): 35 µM
- TGI (IGROV1 ovarian): > 100 µM
- TGI (K-562 leukemia): 38.4 µM
- TGI (KM20L2 colon): 52.9 µM
- TGI (LOX IMVI melanoma): 42.7 µM
- TGI (LXFL 529 NSCLC): > 100 µM
- TGI (M14 melanoma): 75.5 µM
- TGI (M19-MEL melanoma): 58.9 µM
- TGI (MALME-3M melanoma): 72.5 µM
- TGI (MOLT-4 leukemia): 37.2 µM
- TGI (NCI-H226 lung): 36.3 µM
- TGI (NCI-H23 lung): 44.6 µM
- TGI (NCI-H522 lung): 30.5 µM
- TGI (OVCAR-3 ovarian): 43.5 µM
- TGI (OVCAR-4 ovarian): > 100 µM
- TGI (OVCAR-5 ovarian): 81.8 µM
- TGI (OVCAR-8 ovarian): > 100 µM
- TGI (RPMI-8226 leukemia): 33.3 µM
- TGI (RXF 393 renal): 45.7 µM
- TGI (SF-268 CNS): 97.7 µM
- TGI (SF-295 CNS): 47.2 µM
- TGI (SF-539 CNS): 75.2 µM
- TGI (SK-MEL-2 melanoma): 37 µM
- TGI (SK-MEL-28 melanoma): 78.3 µM
- TGI (SK-MEL-5 melanoma): 37.9 µM
- TGI (SN12C renal): 73 µM
- TGI (SNB-19 CNS): 76.5 µM
- TGI (SNB-75 CNS): 90.1 µM
- TGI (SNB-78 CNS): 62.4 µM
- TGI (SW-620 colon): 46.8 µM
- TGI (TK-10 renal): > 100 µM
- TGI (U251 CNS): 34.9 µM
- TGI (UACC-257 melanoma): 37.4 µM
- TGI (UACC-62 melanoma): > 100 µM
- TGI (UO-31 renal): 58.9 µM
- TGI (XF 498 CNS): 36.1 µM

Compound: CC(=O)[CH-]C(=O)c1ccccc1.CC(=O)[CH-]C(=O)c1ccccc1.COc1cccc([O-])c1[O-].[Ti+4]
- GI50 (786-0 renal): 49 µM
- TGI (786-0 renal): > 100 µM
- GI50 (A498 renal): 72.5 µM
- TGI (A498 renal): > 100 µM
- GI50 (A549 NSCLC): > 100 µM
- TGI (A549 NSCLC): > 100 µM
- GI50 (ACHN renal): 94.9 µM
- TGI (ACHN renal): > 100 µM
- GI50 (CAKI-1 renal): > 100 µM
- TGI (CAKI-1 renal): > 100 µM
- GI50 (CCRF-CEM leukemia): 6.42 µM
- TGI (CCRF-CEM leukemia): > 100 µM
- GI50 (COLO 205 colon): 37.9 µM
- TGI (COLO 205 colon): > 100 µM
- GI50 (DLD-1 colon): 69.2 µM
- TGI (DLD-1 colon): > 100 µM
- GI50 (HCC-2998 colon): 90.2 µM
- TGI (HCC-2998 colon): > 100 µM
- GI50 (HCT-116 colon): 32.1 µM
- TGI (HCT-116 colon): > 100 µM
- GI50 (HCT-15 colon): 50.2 µM
- TGI (HCT-15 colon): > 100 µM
- GI50 (HL-60(TB) leukemia): 20.3 µM
- TGI (HL-60(TB) leukemia): 98.2 µM
- GI50 (HOP-18 NSCLC): 25.9 µM
- TGI (HOP-18 NSCLC): 63.5 µM
- GI50 (HOP-62 NSCLC): 71.4 µM
- TGI (HOP-62 NSCLC): > 100 µM
- GI50 (HOP-92 NSCLC): 57.8 µM
- TGI (HOP-92 NSCLC): > 100 µM
- GI50 (HT29 colon): 64.5 µM
- TGI (HT29 colon): > 100 µM
- GI50 (IGROV1 ovarian): > 100 µM
- TGI (IGROV1 ovarian): > 100 µM
- GI50 (K-562 leukemia): 31.6 µM
- TGI (K-562 leukemia): > 100 µM
- GI50 (KM12 colon): 33.4 µM
- TGI (KM12 colon): > 100 µM
- GI50 (KM20L2 colon): 52.2 µM
- TGI (KM20L2 colon): > 100 µM
- GI50 (LOX IMVI melanoma): 25 µM
- TGI (LOX IMVI melanoma): > 100 µM
- GI50 (LXFL 529 NSCLC): 34.3 µM
- TGI (LXFL 529 NSCLC): > 100 µM
- GI50 (M14 melanoma): 64.9 µM
- TGI (M14 melanoma): > 100 µM
- GI50 (M19-MEL melanoma): 32.4 µM
- TGI (M19-MEL melanoma): 89.7 µM
- GI50 (MALME-3M melanoma): 33.4 µM
- TGI (MALME-3M melanoma): > 100 µM
- GI50 (MOLT-4 leukemia): 33.1 µM
- TGI (MOLT-4 leukemia): > 100 µM
- GI50 (NCI-H226 lung): 15.9 µM
- TGI (NCI-H226 lung): 73 µM
- GI50 (NCI-H460 lung): 52 µM
- TGI (NCI-H460 lung): > 100 µM
- GI50 (NCI-H522 lung): 17.2 µM
- TGI (NCI-H522 lung): 31.7 µM
- GI50 (OVCAR-3 ovarian): 40.5 µM
- TGI (OVCAR-3 ovarian): > 100 µM
- GI50 (OVCAR-4 ovarian): 54.3 µM
- TGI (OVCAR-4 ovarian): > 100 µM
- GI50 (OVCAR-5 ovarian): > 100 µM
- TGI (OVCAR-5 ovarian): > 100 µM
- GI50 (OVCAR-8 ovarian): 42.4 µM
- TGI (OVCAR-8 ovarian): > 100 µM
- GI50 (RPMI-8226 leukemia): 57.1 µM
- TGI (RPMI-8226 leukemia): > 100 µM
- GI50 (RXF 393 renal): 30 µM
- TGI (RXF 393 renal): > 100 µM
- GI50 (SF-268 CNS): 47.6 µM
- TGI (SF-268 CNS): > 100 µM
- GI50 (SF-295 CNS): 70.4 µM
- TGI (SF-295 CNS): > 100 µM
- GI50 (SF-539 CNS): 24.4 µM
- TGI (SF-539 CNS): 65.6 µM
- GI50 (SK-MEL-2 melanoma): 24.8 µM
- TGI (SK-MEL-2 melanoma): 62.4 µM
- GI50 (SK-MEL-28 melanoma): 31 µM
- TGI (SK-MEL-28 melanoma): > 100 µM
- GI50 (SK-MEL-5 melanoma): 93.3 µM
- TGI (SK-MEL-5 melanoma): > 100 µM
- GI50 (SK-OV-3 ovarian): 53.9 µM
- TGI (SK-OV-3 ovarian): > 100 µM
- GI50 (SN12C renal): 49.1 µM
- TGI (SN12C renal): > 100 µM
- GI50 (SNB-19 CNS): 64.3 µM
- TGI (SNB-19 CNS): > 100 µM
- GI50 (SNB-75 CNS): 43.5 µM
- TGI (SNB-75 CNS): > 100 µM
- GI50 (SW-620 colon): 52.6 µM
- TGI (SW-620 colon): > 100 µM
- GI50 (TK-10 renal): > 100 µM
- TGI (TK-10 renal): > 100 µM
- GI50 (U251 CNS): 25.7 µM
- TGI (U251 CNS): > 100 µM
- GI50 (UACC-257 melanoma): > 100 µM
- TGI (UACC-257 melanoma): > 100 µM
- GI50 (UACC-62 melanoma): 39.9 µM
- TGI (UACC-62 melanoma): > 100 µM
- GI50 (UO-31 renal): > 100 µM
- TGI (UO-31 renal): > 100 µM

From PubChem BioAssay (NCI)
